Consider one substance from US20180264124A1, “DRUG COMPLEX” (Shimadzu Corporation, priority 2015, published 2018).

Ends that are not written are not given here.

This test concerns HUVEC. Put plainly: HUVEC growth inhibition test (WST-1 assay). Conditions: 25 ng/mL VEGF, 24 hours.

On to “YT1-Cem: non-VEGF-binding helix-loop-helix peptide YT1-Cys (SEQ ID NO: 18) reacted with CemCH2-S-TNB; control complex (CAELAALEAELAALEGGGGGGGKLAALKAKLAALKA; also: Cem conjugated via the Cys (CemCH2-S-TNB reaction))”, for which the cell growth inhibition entry is “did not inhibit cell growth”.
